Experimental findings from PMC4419590 (ChemMedChem, 2014) are described below.

One data set has as its system HIV-1LAI. Put plainly: Antiviral activity in MT-2 cells exposed to HIV-1LAI, MTT assay. It counts as cell-based. In general terms: Tetrazolium assays rely on reduction of a dye to a coloured formazan, in cell work by metabolically active cells.
Data set [1] relates to in vitro BBB model (rat astrocytes, pericytes and monkey endothelial cells).
The subject of a further data set is HIV-1MDR/JSL(R5). Description: microbe, parasite or virus in culture. It counts as cell-based. Particulars: for fold change of EC50 compared to wild-type HIV-1ERS104pre: number in parentheses.
The next data set concerns HIV-1MDR/B(X4). Description: microbe, parasite or virus in culture. It counts as cell-based. To be noted: for fold change of EC50 compared to wild-type HIV-1ERS104pre: number in parentheses.
The next data set relates to HIV-1MDR/MM(R5). Put plainly: microbe, parasite or virus in culture. It counts as cell-based. To be noted: for fold change of EC50 compared to wild-type HIV-1ERS104pre: number in parentheses.
Data set [2] has as its system MT-2 human T-lymphoid cells.
The subject of a further data set is HIV-1MDR/G(X4). Put plainly: microbe, parasite or virus in culture. To be noted: for fold change of EC50 compared to wild-type HIV-1ERS104pre: number in parentheses. The format is cell-based.
Another data set deals with HIV-1MDR/TM(X4). Description: microbe, parasite or virus in culture. It counts as cell-based. To be noted: for fold change of EC50 compared to wild-type HIV-1ERS104pre: number in parentheses.
Another data set concerns HIV-1MDR/C(X4). Put plainly: microbe, parasite or virus in culture. It counts as cell-based. To be noted: for fold change of EC50 compared to wild-type HIV-1ERS104pre: number in parentheses.
Data set [3] deals with HIV-1ERS104pre (wild-type X4). Put plainly: Antiviral activity in PHA-PBMs, p24 Gag production, wild-type clinical isolate. It counts as cell-based.
Data set [4] has as its system panel of six multidrug resistant clinical HIV-1 variants. Put plainly: microbe, parasite or virus in culture. The format is cell-based. To be noted: Human immunodeficiency virus 1, read-out: EC50 range across the panel.
Data set [5] is described as follows: In vitro blood-brain-barrier model, triple co-culture drug transport assay. Particulars: rat, monkey.
The mark [6] stands for this setting: Human immunodeficiency virus 1, T-lymphoid, in Homo sapiens.
Where [7] appears, read: PHA-PBMs, p24 Gag production, mean ± 1 SD.

By EC50 is commonly meant the concentration that produces a half-maximal response. For `CC(C)(C)NC(=O)[C@@H]1C[C@@H]2CCCC[C@@H]2CN1C[C@@H](O)[C@H](Cc1ccccc1)NC(=O)[C@H](CC(N)=O)NC(=O)c1ccc2ccccc2n1` [saquinavir], the EC50 in the data set on HIV-1LAI (setting [6]) amounted to 21 nM.
Broadly, the CC50 is the concentration giving 50% cytotoxicity. Consider `CC(C)CN(C[C@@H](O)[C@H](Cc1ccccc1)NC(=O)O[C@H]1CO[C@H]2OCC(F)(F)[C@H]21)S(=O)(=O)c1ccc(N)cc1` [Inhibitor 4], for which the “Papp (apparent permeability coefficient)” value in data set [1] is on record as 60.84 ± 3.97 10^−6 cm/s. Further, the “fold change of EC50 compared to wild-type HIV-1ERS104pre” value (from here on “fold change of EC50”) in the data set with HIV-1MDR/JSL(R5) is 1; with HIV-1MDR/B(X4), 3; with HIV-1MDR/MM(R5) it was 7; with HIV-1MDR/G(X4), 1; in the data set on HIV-1MDR/TM(X4), 2; with HIV-1MDR/C(X4), 1. In addition, the EC50 in the data set with HIV-1MDR/B(X4) (setting [7]) was found to be 11 ± 1 nM; in the data set on HIV-1MDR/MM(R5) (setting [7]), 20 ± 0.2 nM; with HIV-1MDR/G(X4) (setting [7]), 4 ± 1 nM; in the data set on HIV-1LAI (MT-2 human T-lymphoid cells exposed to HIVLAI), 3 nM; with HIV-1MDR/TM(X4) (setting [7]), 4 ± 1 nM; in the data set with HIV-1MDR/C(X4) (setting [7]), 2 ± 1 nM. The compound also returned an EC50 in data set [3] (setting [7]) of 2.7 ± 0.3 nM. In data set [2], half-maximal cytotoxicity (CC50) was put at 37 µM.
Consider `CC(C)CN(C[C@@H](O)[C@H](Cc1ccccc1)NC(=O)O[C@H]1CCOC1)S(=O)(=O)c1ccc(N)cc1` [APV, amprenavir, reference compound], for which the EC50 with HIV-1MDR/JSL(R5) (Human immunodeficiency virus 1) is 270 ± 10 nM; in the data set on HIV-1MDR/B(X4) (Human immunodeficiency virus 1) it was 490 ± 50 nM; with HIV-1MDR/MM(R5) (Human immunodeficiency virus 1), 630 ± 9 nM; with HIV-1MDR/G(X4) (Human immunodeficiency virus 1) it was 310 ± 80 nM; in [4], 210 to 630 nM; in the data set on HIV-1MDR/C(X4) (Human immunodeficiency virus 1), 210 ± 20 nM. In addition, the “fold change of EC50” value was 9 in the data set with HIV-1MDR/JSL(R5); 15 in the data set with HIV-1MDR/B(X4); 22 in the data set on HIV-1MDR/MM(R5); 11 with HIV-1MDR/G(X4); 12 in the data set on HIV-1MDR/TM(X4); 7 with HIV-1MDR/C(X4).
As to `COc1ccc(S(=O)(=O)N(CC(C)C)C[C@@H](O)[C@H](Cc2ccccc2)NC(=O)OC2CO[C@H]3OCC(F)(F)[C@@H]23)cc1` (stereo partly drawn) [Inhibitor 3], the “Papp (apparent permeability coefficient)” value in data set [1] is listed as 50.38 ± 10.61 10^−6 cm/s. The EC50 in the data set on HIV-1MDR/JSL(R5) (setting [7]) was 2 ± 1 nM; in the data set with HIV-1MDR/B(X4) (setting [7]) it was 14 ± 1 nM; in the data set on HIV-1MDR/MM(R5) (setting [7]), 21 ± 4 nM; in the data set with HIV-1MDR/G(X4) (setting [7]) it was 4 ± 1 nM; in the data set on HIV-1MDR/TM(X4) (setting [7]) it was 4 ± 1 nM; in the data set on HIV-1MDR/C(X4) (setting [7]) it was 2 ± 1 nM. In data set [3] (setting [7]), this compound gave an EC50 of 2.3 ± 0.1 nM. In addition, the “fold change of EC50” value is recorded as 1 in the data set with HIV-1MDR/JSL(R5); 7 in the data set with HIV-1MDR/B(X4); 10 with HIV-1MDR/MM(R5); 2 in the data set on HIV-1MDR/G(X4); 2 in the data set on HIV-1MDR/TM(X4); 1 with HIV-1MDR/C(X4). The compound also yielded a CC50 in data set [2] of 17.5 µM.
The Papp is the rate of passage across a membrane or cell layer, normalised by area and donor concentration. Turning to `CC(C)CN(C[C@@H](O)[C@H](Cc1ccccc1)NC(=O)O[C@H]1CO[C@H]2OCC[C@H]21)S(=O)(=O)c1ccc(N)cc1` [Darunavir, darunavir, reference compound], the EC50 was 10 ± 1 nM in the data set on HIV-1MDR/JSL(R5) (Human immunodeficiency virus 1); 25 ± 2 nM with HIV-1MDR/MM(R5) (Human immunodeficiency virus 1); 14 ± 9 nM in the data set with HIV-1MDR/G(X4) (Human immunodeficiency virus 1); 5 nM in the data set with HIV-1LAI (setting [6]); 30 ± 10 nM in the data set with HIV-1MDR/TM(X4) (Human immunodeficiency virus 1); 5 ± 1 nM with HIV-1MDR/C(X4) (Human immunodeficiency virus 1). Further, in data set [3] (Human immunodeficiency virus 1), the EC50 stood at 4 ± 1 nM. For the same compound, in data set [5], the Papp at 30 min, 100 μM is 9.32 ± 2.25 ×10⁻⁶ cm/s.
